Tested on: rats
Test: Testing of ulcerogenic effect in rats (Table 5)
Assay type: in vivo, rat
Settings: 5 days
Procedure: Unstarved rats weighing 160-180 g. were used for the experiment. The animals were divided into groups of 20. The compounds were administered as 1% suspensions stabilized with methylcellulose, by the oral route, at a volume of 0.2 ml./100 g. Treatment was continued for 5 days (1 treatment/day), and was suspended on the 6th and 7th day. On the 8th experimental day the […] were killed by ether overdosage. After laparatomy the stomachs were removed, washed twice in water and thereafter dipped in formaline. An incision was made along the large curvature, then again rinced with water and spread on a PVC plate. The gastric mucosa is evaluated macroscopically by two methods:
1. The ulcer index was calculated. The animals were divided into groups on the ground of the diameter of the largest ulcer and the extent of the changes was scored as follows:
The number of animals in the individual groups was multiplied by the number of scores and the proucts of multiplications are added and the sum thus obtained is divided by the number of animals.
2. Ulcer counts were calculated. The number of ulcers was counted on each stomach and the total number of ulcers was divided by the number of animals. […] Changes found in the intestinates were evaluated as "all or naught" and expressed in per cent of the number of animals.

**Q.** `COc1ccc2c(c1)c(CC(=O)OCC(Cl)(Cl)Cl)c(C)n2C(=O)c1ccc(Cl)cc1` [Example 5, 1-(p-chlorobenzoyl)-2-methyl-5-methoxy-indol-3-yl-acetic-acid trichloroethyl ester] was tested. Which Deaths (oral 27.3 mg./kg.) did it give?
**A.** Its Deaths is 1/20.

**Q.** And the “Number of surviving animals” value (oral 27.3 mg./kg.)?
**A.** Its value is 19.

**Q.** What about the “Per cent of animals exhibiting changes of intest. mucosa” value (oral 27.3 mg./kg.) of the same compound?
**A.** The value was 10.5 Per cent.

**Q.** And the “Ulcer number” value (oral 27.3 mg./kg.)?
**A.** The value was 0.

**Q.** What about the Deaths (oral 54.7 mg./kg.) of the same compound?
**A.** Its Deaths is 5/20.

**Q.** And the “Number of surviving animals” value (oral 54.7 mg./kg.)?
**A.** Its value is 15.

**Q.** And the “Per cent of animals exhibiting changes of intest. mucosa” value (oral 54.7 mg./kg.)?
**A.** Its value is 80 Per cent.

**Q.** What about the “Ulcer number” value (oral 54.7 mg./kg.) of the same compound?
**A.** Its value is 0.27.
